According to patent US8779141B2, “Viral inhibitors” (Gilead Sciences, Inc., priority 2002, dated 2014):
In brackets after ≈: the same amount, converted by molar mass.

Columns and labels:
BVDV-1 (strain PE515) = assay: Anti-BVDV assay, virus-induced cytopathic effect in MDBK cells (MTS); format: cell-based, Bovine Viral Diarrhea Virus; details: Bovine viral diarrhea virus isolates and strains; Table 9; reduction of virus induced cytopathic effect in MDBK cells by 50%; BVDV strain PE515; mean of 2-5 determinations; read-out: EC50
Protocol: Madin-Darbey Bovine Kidney (MDBK) cells were maintained in Dulbecco's modified Eagle medium (DMEM) supplemented with BVDV-free 5% fetal calf serum (DMEME-FCS) at 37° C. in a humidified, 5% CO2 atmosphere. BVDV-1 (strain PE515) was used to assess the antiviral activity in MDBK cells. Vero cells were maintained in the same way as MDBK cells. Vero cells were infected with Coxsackie B3 virus (strain Nancy).
Ninety-six-well cell culture plates were seeded with MDBK cells in DMEM-FCS so that cells reached 24 hr later confluency. Then medium was removed and serial 5-fold dilutions of the test compounds were added in a total volume of 100 ul, after which the virus inoculum (100 ul) was added to each well. […] Uninfected cells and cells receiving virus without compound were included in each assay plate. After 5 days, medium was removed and 90 μl of DMEM-FCS and 10 ul of MTS/PMS solution (Promega) was added to each well. Following a 2 hr incubation period at 37° C. the optical density of the wells was read at 498 nm in a microplate reader.

[1] = Cytostatic effect on exponentially growing MDBK cells (MTS); format: cell-based, Bovine; details: bovine; Table 9; reduction of growth of exponentially growing MDBK cells by 50%; mean of 2-5 determinations
Protocol: Madin-Darbey Bovine Kidney (MDBK) cells were maintained in Dulbecco's modified Eagle medium (DMEM) supplemented with BVDV-free 5% fetal calf serum ([…]) at 37° C. in a humidified, 5% CO2 atmosphere. […] Vero cells were maintained in the same way as MDBK cells. […] The effect of the drugs on exponentially growing MDBK cells was assessed as follows. Cells were seeded at a density of 5000 cell/well in 96 well plates in MEM medium (Gibco) supplemented with 10% fetal calf serum, 2 mM L-glutamine (Life Technologies) and bicarbonate (Life Technologies). […] Cultures were then again further incubated for 3 days after which the effect on cell growth was quantified by means of the MTS method (Promega).

| Compound | EC50 (BVDV-1 (strain PE515)) [µg/mL] | CC50 at 3 days [1] [µg/mL] |
| --- | --- | --- |
| Clc1ccccc1-c1nc2ccn(Cc3ccc(Br)cc3)cc-2n1 [GPJN-54, 5-[(4-Bromophenyl)methyl]-2-(2-chlorophenyl)-5H-imidazo[4,5-c]pyridine] | 0.1 (≈ 0.251 µM) | 35 (≈ 87.8 µM) |
| COc1cccc(Cn2ccc3nc(-c4ccccc4)nc-3c2)c1 [GPJN-12, 5-[(3-Methoxyphenyl)methyl]-2-phenyl-5H-imidazo[4,5-c]pyridine] | 0.059 (≈ 0.187 µM) | 56 (≈ 178 µM) |
| CC(C)=CCn1ccc2nc(-c3ccccc3)nc-2c1 [GPJN-28, 5-(3-Methyl-2-butenyl)-2-phenyl-5H-imidazo[4,5-c]pyridine] | 0.325 (≈ 1.23 µM) | > 75 |
| Brc1ccc(Cn2ccc3nc(-c4ccc5ccccc5c4)nc-3c2)cc1 [GPJN-63, 5-[(4-Bromophenyl)methyl]-2-(2-naphthalenyl)-5H-imidazo[4,5-c]pyridine] | 0.0042 (≈ 0.0101 µM) | 4.3 (≈ 10.4 µM) |
| Clc1ccc(Cn2ccc3nc(-c4ccccc4)nc-3c2)s1 [GPJN-25, 5-[(5-Chloro-2-thienyl)methyl]-2-phenyl-5H-imidazo[4,5-c]pyridine] | 0.009 (≈ 0.0276 µM) | 36 (≈ 110 µM) |
| Cl.Clc1ccc(Cn2ccc3nc(-c4ccccc4)nc-3c2)cc1 [GPJN-9 xHCl, 5-[(4-Chlorophenyl)methyl]-2-phenyl-5H-imidazo[4,5-c]pyridine hydrochloride] | 0.016 |  |
| CC(c1ccccc1)n1ccc2nc(-c3ccccc3)nc-2c1 (centres unmarked) [GPJN-33, 2-Phenyl-5-(1-phenylethyl)-5H-imidazo[4,5-c]pyridine] | 0.2 (≈ 0.668 µM) | 70 (≈ 234 µM) |
| c1ccc(-c2nc3ccn(Cc4ccccn4)cc-3n2)cc1 [GPJN-34, 2-Phenyl-5-(2-pyridinylmethyl)-5H-imidazo[4,5-c]pyridine] | 0.865 (≈ 3.02 µM) | > 100 |
| Clc1ccccc1Cn1ccc2nc(-c3ccccc3)nc-2c1 [GPJN-7, 5-[(2-Chlorophenyl)methyl]-2-phenyl-5H-imidazo[4,5-c]pyridine] | 0.042 (≈ 0.131 µM) | 22 (≈ 68.8 µM) |
| Clc1cccc(Cn2ccc3nc(-c4ccccc4)nc-3c2)c1 [GPJN-8, 5-[(3-Chlorophenyl)methyl]-2-phenyl-5H-imidazo[4,5-c]pyridine] | 0.086 (≈ 0.269 µM) | 51 (≈ 159 µM) |
| Fc1cccc(Cn2ccc3nc(-c4ccccc4)nc-3c2)c1 [GPJN-18, 5-[(3-Fluorophenyl)methyl]-2-phenyl-5H-imidazo[4,5-c]pyridine] | 0.019 (≈ 0.0626 µM) | 55 (≈ 181 µM) |
| c1ccc(-c2nc3ccn(Cc4ccncc4)cc-3n2)cc1 [GPJN-31, 2-Phenyl-5-(4-pyridinylmethyl)-5H-imidazo[4,5-c]pyridine] | 0.455 (≈ 1.59 µM) | > 100 |
| Fc1cc(F)c(Cn2ccc3nc(-c4c(F)cccc4F)nc-3c2)c(F)c1 [GPJN-41, 2-(2,6-Difluorophenyl)-5-[(2,4,6-trifluorophenyl)methyl]-5H-imidazo[4,5-c]pyridine] | 0.58 (≈ 1.55 µM) | > 100 |
| Fc1cccc(F)c1Cn1ccc2nc(-c3ccccc3)nc-2c1 [GPJN-3, 5-[(2,6-Difluorophenyl)methyl]-2-phenyl-5H-imidazo[4,5-c]pyridine] | 0.06 (≈ 0.187 µM) | 60 (≈ 187 µM) |
| Fc1cccc(F)c1-c1nc2ccn(Cc3ccccc3)cc-2n1 [GPJN-1, 5-Benzyl-2-(2,6-difluorophenyl)-5H-imidazo[4,5-c]pyridine] | 0.24 (≈ 0.747 µM) | > 83.3 |
| Clc1ccc(Cn2ccc3nc(-c4ccccc4)nc-3c2)cc1 [GPJN-9, 5-[(4-Chlorophenyl)methyl]-2-phenyl-5H-imidazo[4,5-c]pyridine] | 0.049 (≈ 0.153 µM) |  |
| Brc1cccc(-c2nc3ccn(Cc4ccc(I)cc4)cc-3n2)c1 [GPJN-79, 2-(3-Bromophenyl)-5-[(4-iodophenyl)methyl]-5H-imidazo[4,5-c]pyridine] | 0.083 (≈ 0.169 µM) | > 100 |
| c1ccc(CCCCn2ccc3nc(-c4ccccc4)nc-3c2)cc1 [GPJN-27, 2-Phenyl-5-(4-phenylbutyl)-5H-imidazo[4,5-c]pyridine] | 0.945 (≈ 2.89 µM) | > 46 |
| c1ccc(CCCn2ccc3nc(-c4ccccc4)nc-3c2)cc1 [GPJN-14, 2-Phenyl-5-(3-phenylpropyl)-5H-imidazo[4,5-c]pyridine] | 0.07 (≈ 0.223 µM) | 40 (≈ 128 µM) |
| c1ccc(-c2nc3ccn(CC4CCCCC4)cc-3n2)cc1 [GPJN-37, 5-(Cyclohexylmethyl)-2-phenyl-5H-imidazo[4,5-c]pyridine] | 0.161 (≈ 0.553 µM) | 22 (≈ 75.5 µM) |
